Assay results taken from patent US20250049747A1, “USE OF HYPERPOLARIZING AGENTS ALONE AND IN COMBINATION WITH OTHER THERAPEUTIC AGENTS FOR TREATING CANCERS INCLUDING GLIOBLASTOMA” (Trustees of Tufts College, priority 2021, published 2025).

What was measured:
[1] = human, in vivo; cited from earlier work
human neuronal cells = assay: Live/Dead assay on human neuronal cells; type: cell-based; conditions: human neurons, 3 day treatment
Experimental: Human neuronal cells were differentiated from human induced neural stem cells (hiNSCs) (passage 7-10), a generous gift from David Kaplan, as described previously. Briefly, hiNSCs were grown on mouse embryonic fibroblast (MEF) feeder cells until ready to differentiate into neurons. Cells were then seeded on Poly-D-Lysine (A3890401, ThermoFisher) and laminin (L2020, Sigma) coated 96 well plates at a density of 128,000 cells/mL. Cells were differentiated in Neurobasal (12348017, ThermoFisher) media supplemented with 2% B27 (17504044, Gibco), 1% Glutamax, and 1% antibiotic-antimycotic for 7 days with media changes every 2 days. At the end of the 7 days the treatments were added in the differentiation media for 3 days.
Dye Staining Protocols. For the Live/Dead assay, 1 μM Calcein Green AM and 0.5 μM ethidium homodimer-1 (L3224, ThermoFisher) were added to PBS along with 10 μg/mL of Hoechst to make the staining solution. Half the media was removed from the human neuronal cells that had been incubated with treatments for 3 days and replaced with staining solution. […] Cells were then incubated for 15 min at 37° C. and imaged. For resting membrane potential staining, DiBAC4(3) was used. U87 cells were seeded at 10,000 cells per mL on Matrigel coated plates as described above. […] Images were then analyzed using a CellProfiler pipeline. […]

For `COc1ccnc(C[S+]([O-])c2nc3ccc(OC(F)F)cc3[nH]2)c1OC` (centres unmarked) [Pantoprazole, pantoprazole], the “blood brain barrier penetrance” value [1] is listed as 2% and the “toxicity by Live/Dead stain compared to control” value (human neuronal cells) is listed as “slight increase in toxicity that was significant compared to control”.
